Experimental data as given in patent US10836789B2, “Inhibitors of glucocorticoid receptor” (ORIC Pharmaceuticals, Inc., priority 2016, dated 2020).

How the values were obtained:
[1] = molecular target: T1, GR (Homo sapiens, UniProt P04150); test: GR luciferase antagonist assay (CHO/GR/MMTV Luciferase cells); format: cell-based; details: 10 nM Dexamethasone final, 16-18 h
T1 construct: expressed in transfected cells; host or cells: CHO cells carrying GR and an MMTV-luciferase reporter
T1 sequence (P04150 1-777): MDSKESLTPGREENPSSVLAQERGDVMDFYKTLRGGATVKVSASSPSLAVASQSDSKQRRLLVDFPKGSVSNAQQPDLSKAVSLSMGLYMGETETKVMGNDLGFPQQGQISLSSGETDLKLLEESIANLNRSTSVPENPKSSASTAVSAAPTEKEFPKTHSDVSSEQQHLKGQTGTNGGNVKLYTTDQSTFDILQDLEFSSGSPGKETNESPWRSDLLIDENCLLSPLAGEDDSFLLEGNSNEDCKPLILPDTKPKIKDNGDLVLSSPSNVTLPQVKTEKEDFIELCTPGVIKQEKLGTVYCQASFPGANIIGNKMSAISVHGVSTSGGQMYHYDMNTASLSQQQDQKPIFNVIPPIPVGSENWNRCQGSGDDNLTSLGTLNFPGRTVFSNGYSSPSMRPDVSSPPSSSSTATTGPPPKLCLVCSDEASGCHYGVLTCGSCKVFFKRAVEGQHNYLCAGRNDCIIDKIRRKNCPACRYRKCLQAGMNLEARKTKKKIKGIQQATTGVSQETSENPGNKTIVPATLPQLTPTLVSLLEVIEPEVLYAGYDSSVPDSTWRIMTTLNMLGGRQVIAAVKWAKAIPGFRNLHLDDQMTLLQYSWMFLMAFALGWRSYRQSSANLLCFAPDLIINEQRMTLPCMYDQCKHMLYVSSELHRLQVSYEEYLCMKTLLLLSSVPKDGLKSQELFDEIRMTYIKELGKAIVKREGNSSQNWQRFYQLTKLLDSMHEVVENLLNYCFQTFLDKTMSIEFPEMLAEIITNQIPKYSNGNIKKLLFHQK
Experimental: Example A: […] GR Luciferase Assay Cell Line: CHO/GR/MMTV Luciferase Culture Media: DMEM (with phenol red)+10% FBS Assay Media: DMEM (without phenol red)+10% CSS A 1×10 cm plate of cells was split into 2×15 cm plates in Assay Media (CSS). After 4 days, the cells in the Assay Media were collected and counted. Antagonist Assay: 1.5×10^4 cells per well were plated in a 384-well white walled TC plate in 20 ul of Assay Media containing 12.5 nM Dexamethasone (final concentration=10 nM). The plates were covered with film to avoid evaporation and placed in a TC incubator. Media/drug dilutions were prepared in Assay Media in 96-well sterile plates. 100 ul of Assay Media was distributed in aliquots into 96-well plates with an 8-Channel pipette (20-200 ul). 0.5 ul of 1000× concentration of compounds were added to the plates with 8-Channel pipette (0.5-10 ul). The plates were shaken for 15 seconds to mix. The film was removed from the 384-well plates with assay cells. 5 ul of media/drug dilutions were added to appropriate wells. The plates were covered with film to avoid evaporation and placed in a TC incubator overnight. After 16-18 h in the incubator, the plates were removed and sat at room temperature for 10 minutes to equilibrate. The Reagent Dispenser was setup to distribute 25 ul aliquots of OneGlo Luciferase Reagent (at room temperature) to each well of the 384-well plate using standard cassette. After OneGlo was added to the plates, the plates were shaken briefly, then incubated in the dark at room temperature for about 3 minutes. The plates were read using a Tecan or Promega luminometer. The ability of the compounds disclosed herein to inhibit GR activity was quantified and the respective IC50 value was determined. Table 3 provides the cellular IC50 values of various substituted steroidal compounds disclosed herein.

[2] = tested on: AR; test: AR agonism assay in LNAR reporter cell line; format: cell-based; details: for Relative Maximum Response to Mifepristone: LNAR cells (overexpressed AR, 4XARE-Luc), 10% CSS, 18-24 hrs, Mifepristone maximum response set to 1
Experimental: Example B: In Vitro AR Agonism Assay
The AR agonism assay was done in the LNAR reporter cell line which has overexpressed AR and 4XARE-Luc genes. This cell line is sensitive to even minor partial AR agonism activity in hormone-deprived media (CSS). The assays were done in RPMI (without phenol red)+10% CSS using 6000 LNAR cells/well in 384-well plates and compounds were incubated with cells in […] incubator for 18-24 hrs. OneGlo reagent (25 uL/well) was added and plates were read with luminometer within 3 minutes.
To gauge the AR partial agonism activity, Mifepristone is included as a standard in the assay. AR agonism assay results are quantified by determining the ratio of the maximum response of individual compounds to the maximum response of Mifepristone (arbitrarily set to 1). Values of Table 4 are reported as Relative Maximum Response to Mifepristone. This general trend of AR agonism was shown for the class of compounds described herein.

Row | SMILES | IC50 [1] [nM] | Relative Maximum Response to Mifepristone [2] | partial AR agonism ([2]; in concentrations as low as 10 nM)
1 | CC(C)N(C)c1ccc([C@H]2C[C@@]3(C)[C@@H](CC(C)[C@@]3(O)C#CC(C)(C)C)[C@@H]3CCC4=CC(=O)CC[C@@H]4[C@H]32)cc1 (single isomer, unassigned) [Compound 8] | ≤ 100 | A (A: ≤ 0.4) | 
2 | CC(C)(C)C#C[C@]1(O)CC[C@H]2[C@@H]3CCC4=CC(=O)CC[C@@H]4[C@H]3[C@@H](c3ccc(N4CCCC4)cc3)C[C@@]21C [Compound 1, (8R,9S,10R,11S,13S,14S,17S)-17-(3,3-Dimethylbut-1-yn-1-yl)-17-hydroxy-13-methyl-11-(4-(pyrrolidin-1-yl)phenyl)-1,2,6,7,8,9,10,11,12,13,14,15,16,17-tetradecahydro-3H-cyclopenta[a]phenanthren-3-one] | ≤ 100 | A (A: ≤ 0.4) | 
3 | CC(C)N(C)c1ccc([C@H]2C[C@@]3(C)[C@@H](CC[C@@]3(O)C#CC(C)(C)C)[C@@H]3CCC4=CC(=O)CC[C@@H]4[C@H]32)cc1 [Compound 2, (8R,9S,10R,11S,13S,14S,17S)-17-(3,3-Dimethylbut-1-yn-1-yl)-17-hydroxy-11-(4-(isopropyl(methyl)amino)phenyl)-13-methyl-1,2,6,7,8,9,10,11,12,13,14,15,16,17-tetradecahydro-3H-cyclopenta[a]phenanthren-3-one] | ≤ 100 | A (A: ≤ 0.4) | 
4 | COC(C)(C)C#C[C@]1(O)CC[C@H]2[C@@H]3CCC4=CC(=O)CC[C@@H]4[C@H]3[C@@H](c3ccc(N(C)C(C)C)cc3)C[C@@]21C [Compound 4, (8R,9S,10R,11S,13S,14S,17S)-17-Hydroxy-11-(4-(isopropyl(methyl)amino)phenyl)-17-(3-methoxy-3-methylbut-1-yn-1-yl)-13-methyl-1,2,6,7,8,9,10,11,12,13,14,15,16,17-tetradecahydro-3H-cyclopenta[a]phenanthren-3-one] | ≤ 100 | A (A: ≤ 0.4) | 
5 | CCC(C)(C)C#C[C@]1(O)CC[C@H]2[C@@H]3CCC4=CC(=O)CC[C@@H]4[C@H]3[C@@H](c3ccc(N(C)C)cc3)C[C@@]21C [Compound 6, (8R,9S,10R,11S,13S,14S,17S)-11-(4-(Dimethylamino)phenyl)-17-(3,3-dimethylpent-1-yn-1-yl)-17-hydroxy-13-methyl-1,2,6,7,8,9,10,11,12,13,14,15,16,17-tetradecahydro-3H-cyclopenta[a]phenanthren-3-one] | ≤ 100 | A (A: ≤ 0.4) | 
6 | CC(C)(C)C#C[C@]1(O)CC[C@H]2[C@@H]3CCC4=CC(=O)CC[C@@H]4[C@H]3[C@@H](c3ccc(N4CCOCC4)cc3)C[C@@]21C [Compound 7, (8R,9S,10R,11S,13S,14S,17S)-17-(3,3-Dimethylbut-1-yn-1-yl)-17-hydroxy-13-methyl-11-(4-morpholinophenyl)-1,2,6,7,8,9,10,11,12,13,14,15,16,17-tetradecahydro-3H-cyclopenta[a]phenanthren-3-one] | ≤ 100 | A (A: ≤ 0.4) | 
7 | CC(C)Nc1ccc([C@H]2C[C@@]3(C)[C@@H](CC[C@@]3(O)C#CC(C)(C)C)[C@@H]3CCC4=CC(=O)CC[C@@H]4[C@H]32)cc1 [Compound 10, (8R,9S,10R,11S,13S,14S,17S)-17-(3,3-Dimethylbut-1-yn-1-yl)-17-hydroxy-11-(4-(isopropylamino)phenyl)-13-methyl-1,2,6,7,8,9,10,11,12,13,14,15,16,17-tetradecahydro-3H-cyclopenta[a]phenanthren-3-one] | ≤ 100 | A (A: ≤ 0.4) | 
8 | CN(c1ccc([C@H]2C[C@@]3(C)[C@@H](CC[C@@]3(O)C#CC(C)(C)C)[C@@H]3CCC4=CC(=O)CC[C@@H]4[C@H]32)cc1)C(C)(C)C [Compound 11, (8R,9S,10R,11S,13S,14S,17S)-11-(4-(tert-Butyl(methyl)amino)phenyl)-17-(3,3-dimethylbut-1-yn-1-yl)-17-hydroxy-13-methyl-1,2,6,7,8,9,10,11,12,13,14,15,16,17-tetradecahydro-3H-cyclopenta[a]phenanthren-3-one] | ≤ 100 | A (A: ≤ 0.4) | 
9 | CC(C)Nc1ccc([C@H]2C[C@@]3(C)[C@@H](CC[C@@]3(O)C#CC(C)(C)C)[C@@H]3CCC4=CC(=O)CC[C@@H]4[C@H]32)cc1F [Compound 14, (8R,9S,10R,11S,13S,14S,17S)-17-(3,3-dimethylbut-1-yn-1-yl)-11-(3-fluoro-4-(isopropylamino)phenyl)-17-hydroxy-13-methyl-1,2,6,7,8,9,10,11,12,13,14,15,16,17-tetradecahydro-3H-cyclopenta[a]phenanthren-3-one] | > 100 | A (A: ≤ 0.4) | 
10 | COCC#C[C@]1(O)CC[C@H]2[C@@H]3CCC4=CC(=O)CC[C@]4(C)[C@H]3[C@@H](c3ccc(N(C)C)cc3)C[C@@]21C [Compound 17, (8S,9R,10R,11S,13S,14S,17S)-11-(4-(Dimethylamino)phenyl)-17-hydroxy-17-(3-methoxyprop-1-yn-1-yl)-10,13-dimethyl-1,2,6,7,8,9,10,11,12,13,14,15,16,17-tetradecahydro-3H-cyclopenta[a]phenanthren-3-one] | > 100 | A (A: ≤ 0.4) | 
11 | C[C@]12CCC(=O)C=C1CC[C@@H]1[C@@H]2[C@@H](c2ccc(N3CCCC3)cc2)C[C@@]2(C)[C@H]1CC[C@@]2(O)C#CC1CC1 [Compound 28] | > 100 |  | 
12 | C[C@]12CCC(=O)C=C1CC[C@@H]1[C@@H]2[C@@H](c2ccc(N3CCCC3)cc2)C[C@@]2(C)[C@H]1CC[C@@]2(O)C#CC(F)(F)F [Compound 29] | ≤ 100 |  | 
13 | CC#C[C@]1(O)CC[C@H]2[C@@H]3CCC4=CC(=O)CC[C@]4(C)[C@H]3[C@@H](c3ccc(NC(C)C)cc3)C[C@@]21C [Compound 30, (8S,9R,10R,11S,13S,14S,17S)-17-Hydroxy-11-(4-(isopropylamino)phenyl)-10,13-dimethyl-17-(prop-1-yn-1-yl)-1,2,6,7,8,9,10,11,12,13,14,15,16,17-tetradecahydro-3H-cyclopenta[a]phenanthren-3-one] | > 100 |  | 
14 | CC#C[C@]1(O)CC[C@H]2[C@@H]3CCC4=CC(=O)CC[C@]4(C)[C@H]3[C@@H](c3ccc(-n4cccc4)cc3)C[C@@]21C [Compound 31, (8S,9R,10R,11S,13S,14S,17S)-11-(4-(1H-Pyrrol-1-yl)phenyl)-17-hydroxy-10,13-dimethyl-17-(prop-1-yn-1-yl)-1,2,6,7,8,9,10,11,12,13,14,15,16,17-tetradecahydro-3H-cyclopenta[a]phenanthren-3-one] | ≤ 100 |  | 
15 | CC#C[C@]1(O)CC[C@H]2[C@@H]3CCC4=CC(=O)CCC4=C3[C@@H](c3ccc(N(C)C)cc3)C[C@@]21C [Mifepristone, reference compound] |  |  | strong partial AR agonism
